Data published in patent US5459146A, “4-substituted pyrazoloquinoline derivatives” (Schering Corporation, priority 1993, dated 1995).
In brackets after ≈: the same amount, converted by molar mass.

Assays:
[1] = tested on: HSV Early Gene Expression; experiment: Transient Expression Assay for Effects Against HSV Early Gene Expression (β Galactosidase Assay or βgal); type: cell-based; details: read-out: βgal
Method: (§1) The compound toxicity assay (3H-LEU), Plaque Reduction Assay for HSV Antiviral Activity (Plaque), and Transient Expression Assay for Effects Against HSV Early Gene Expression (β Galactosidase Assay or βgal) were carried out as set forth in U.S. Pat. No. 5,175,151 which is hereby incorporated by reference.

[2] = compound toxicity assay (3H-LEU); type: cell-based
Method: as §1

[3] = tested on: HSV; experiment: Plaque Reduction Assay for HSV Antiviral Activity (Plaque); type: cell-based
Method: as §1

[4] = tested on: HSV-1 and HSV-2; details: added to lidocaine or lidocaine hydrochloride; Haines et al.; cited from earlier work
[5] = tested on: HSV-1; details: U.S. Pat. No. 4,757,088; cited from earlier work
[6] = tested on: HSV-2; details: U.S. Pat. No. 4,757,088; cited from earlier work
[7] = tested on: herpes virus; details: U.S. Pat. No. 4,757,088; cited from earlier work
[8] = tested on: HSV; details: Haines et al.; cited from earlier work

**Q.** With `CC(=O)Oc1ccc2nc3[nH]nc(C)c3c(OC(C)=O)c2c1` [A] as the compound, how does the IC50 [1] read?
**A.** The IC50 was 3 µg/mL (≈ 10 µM).

**Q.** And the CC50 [2]?
**A.** The CC50 was 14 µg/mL (≈ 46.8 µM).

**Q.** Which IC50 [1] does the source give for `CC(=O)Oc1ccc2nc3c(c(C)nn3C(C)=O)c(O)c2c1` [B] here?
**A.** The IC50 was 8 µg/mL (≈ 26.7 µM).

**Q.** And the CC50 [2]?
**A.** Its CC50 is 15 µg/mL (≈ 50.1 µM).

**Q.** For `CCCCC(=O)Oc1ccc2nc3[nH]nc(C)c3c(OC(=O)CCCC)c2c1` [C], which IC50 [1] is on record?
**A.** Its IC50 is 5 µg/mL (≈ 13 µM).

**Q.** And the CC50 [2]?
**A.** Its CC50 is 5 µg/mL (≈ 13 µM).

**Q.** Which IC50 [1] does the source give for `CCC(=O)Oc1ccc2nc3[nH]nc(C)c3c(OC(=O)CC)c2c1` [D] here?
**A.** The IC50 was 11 µg/mL (≈ 33.6 µM).

**Q.** With `COc1ccc2nc3c(c(C)nn3C(C)=O)c(O)c2c1` [E] as the compound, how does the IC50 [1] read?
**A.** Its IC50 is 3 µg/mL (≈ 11.1 µM).

**Q.** And the CC50 [2]?
**A.** Its CC50 is 23 µg/mL (≈ 84.8 µM).

**Q.** For `CC(=O)n1nc(C)c2c(O)c3cc(Cl)ccc3nc21` [F], which IC50 [1] is on record?
**A.** The IC50 was 9 µg/mL (≈ 32.6 µM).

**Q.** And the CC50 [2]?
**A.** The CC50 was 37 µg/mL (≈ 134 µM).

**Q.** For `CC(=O)Oc1c2cc(F)ccc2nc2[nH]nc(C)c12` [G], which IC50 [1] is on record?
**A.** Its IC50 is 3 µg/mL (≈ 11.6 µM).

**Q.** And the CC50 [2]?
**A.** Its CC50 is 43 µg/mL (≈ 166 µM).

**Q.** Which IC50 [1] does the source give for `CC(=O)n1nc(C)c2c(O)c3cc(F)ccc3nc21` [H] here?
**A.** Its IC50 is 2 µg/mL (≈ 7.71 µM).

**Q.** And the CC50 [2]?
**A.** The CC50 was 32 µg/mL (≈ 123 µM).

**Q.** For `CCCCCCCn1nc(C)c2c(OC(C)=O)c3cc(OC)ccc3nc21` [I], which IC50 [1] is on record?
**A.** Its IC50 is 2.8 µg/mL (≈ 7.58 µM).

**Q.** What about the CC50 [2] of the same compound?
**A.** Its CC50 is less than 1 µg/mL.

**Q.** With `CC(=O)n1nc(C)c2c(O)c3cc(C)ccc3nc21` [J] as the compound, how does the IC50 [1] read?
**A.** Its IC50 is 9 µg/mL (≈ 35.3 µM).

**Q.** What about the CC50 [2] of the same compound?
**A.** Its CC50 is 100 µg/mL (≈ 392 µM).

**Q.** For `COc1cc(C)c2[nH]c3c(c(C)nn3C(C)=O)c(=O)c2c1` [K], which IC50 [1] is on record?
**A.** Its IC50 is 5 µg/mL (≈ 17.5 µM).

**Q.** What about the CC50 [2] of the same compound?
**A.** Its CC50 is greater than 100 µg/mL.

**Q.** For `CCCCCCCn1nc(C)c2c(=O)c3cc(C)ccc3[nH]c21` [L], which IC50 [1] is on record?
**A.** Its IC50 is 3 µg/mL (≈ 9.63 µM).

**Q.** And the CC50 [2]?
**A.** The CC50 was 3.4 µg/mL (≈ 10.9 µM).

**Q.** With `CCCCCCCn1nc(C)c2c(OC(C)=O)c3cc(C)ccc3nc21` [M] as the compound, how does the IC50 [1] read?
**A.** The IC50 was 3 µg/mL (≈ 8.49 µM).

**Q.** What about the CC50 [2] of the same compound?
**A.** The CC50 was less than 1 µg/mL.

**Q.** For `COc1cccc2c(O)c3c(C)nn(C(C)=O)c3nc12` [N], which IC50 [1] is on record?
**A.** The IC50 was 3 µg/mL (≈ 11.1 µM).

**Q.** And the CC50 [2]?
**A.** Its CC50 is 100 µg/mL (≈ 369 µM).

**Q.** With `COc1ccc2nc3[nH]nc(C)c3c(OCCN(C)C)c2c1` [O] as the compound, how does the IC50 [1] read?
**A.** The IC50 was 1.4 µg/mL (≈ 4.66 µM).

**Q.** What about the IC50 [3] of the same compound?
**A.** The IC50 was 0.7 µg/mL (≈ 2.33 µM).

**Q.** And the CC50 [2]?
**A.** Its CC50 is 5.4 µg/mL (≈ 18 µM).

**Q.** With `COc1ccc2nc3c(c(C)nn3CCCO)c(OC)c2c1` [P] as the compound, how does the IC50 [1] read?
**A.** Its IC50 is 7.2 µg/mL (≈ 23.9 µM).

**Q.** What about the IC50 [3] of the same compound?
**A.** The IC50 was greater than 20 µg/mL.

**Q.** Which IC50 [1] does the source give for `COc1ccc2nc3[nH]nc(C)c3c(OCCN3CCOCC3)c2c1` [Q] here?
**A.** The IC50 was 20 µg/mL (≈ 58.4 µM).

**Q.** What about the IC50 [3] of the same compound?
**A.** The IC50 was 20 µg/mL (≈ 58.4 µM).

**Q.** What does the source list for `C=CCOc1ccc2nc3c(c(C)nn3CC=C)c(O)c2c1` [R]?
**A.** IC50 [1]: 20 µg/mL (≈ 67.7 µM); IC50 [3]: 20 µg/mL (≈ 67.7 µM)

**Q.** With `CC(C)(CO)[C@@H](O)C(=O)NCCCO` [dexpanthenol] as the compound, how does the “antiviral activity of lidocaine or lidocaine hydrochloride on addition of the substance” value [4] read?
**A.** The value was “significantly enhances”.

**Q.** For `CCN(CC)CC(=O)Nc1c(C)cccc1C` [lidocaine, 2-(diethylamino)-N-(2,6-dimethylphenyl)acetamide], which “antiviral activity in cell culture against HSV-1” value [5] is on record?
**A.** The value was “antiviral agent”.

**Q.** What about the “antiviral activity in cell culture against HSV-2” value [6] of the same compound?
**A.** The value was “antiviral agent”.

**Q.** What about the “treatment of herpes virus infections of mammals” value [7] of the same compound?
**A.** Its value is “able to treat herpes virus infections of mammals”.

**Q.** What about the “treatment of HSV oral and genital lesions in humans” value [8] of the same compound?
**A.** The value was “particularly effective”.

**Q.** With `CC(C)(CO)[C@@H](O)C(=O)NCCC(=O)O` [panthothenic acid] as the compound, how does the “antiviral activity of lidocaine or lidocaine hydrochloride on addition of the substance” value [4] read?
**A.** The value was “significantly enhances”.
